According to patent US6495588B2, “Scytonemin and methods of using thereof” (The Regents of the University of California, priority 2000, dated 2002):

Assays:
CDK1/cyclinB1 = target: T1, CDK1/cyclinB1 (Homo sapiens, UniProt P06493); experiment: CDK1/cyclinB histone H1 phosphorylation assay; type: biochemical; conditions: 0.1 μM ATP, histone H1 substrate
T1 construct: made in house
Description: To determine the effect of SCY on CDK1/cyclinB1 kinase activity, the following assay was conducted. Baculovirus vectors expressing CDK1 and cyclinB1, obtained from Dr. David Morgan of the University of California San Francisco, were expressed and purified by the method described in Desai, et al. (1992) Mol. Cell Biol. 3:571-582, which is herein incorporated by reference, to 80% purity as determined by SDS-PAGE analysis and Coomassie Blue staining. CDK1/cyclinB1 kinase activity was analyzed in a 96-well flashplate assay using 2.0 μg/well bovine histone H1 as a substrate. Reactions were run in 50 μl with 0.25 μg of CDK1/cyclinB1 complex, in reaction buffer (50 mM HEPES, pH 7.4, 10 mM MgCl2, 0.1 μM ATP, 1 mM DTT and 0.5 μCi of [γ^33-P] ATP (final reaction concentrations)), and SCY (1 nM to 10 μM final reaction concentration). The positive control used was […] hymenialdisine (final concentration) in a final vehicle concentration of 1% DMSO.
Reactions were initiated with the addition of ATP and allowed to proceed for 10 minutes at room temperature. The reactions were stopped by washing the plate five times with 300 μl/well of PBS. The plate was then counted on a Packard Top-Count.

rhPKCβ2 = target: T2, rhPKCβ2 (Homo sapiens, UniProt P05771); experiment: PKC activity assay; type: biochemical; conditions: 0.01 μM ATP; read-out: IC50 rhPKC activity
T2 construct: made in house; host or cells: baculovirus expression system
Description: RhPKCβ2 was expressed in a baculovirus expression system. Kinase reactions were conducted in 50 μl comprising 0.5 μg rhPKC diluted in 2 mM Tris, and 100 μM EGTA and reaction buffer comprising substrate (0.9 mM EGTA, 1.1 mM CaCl2, 0.01 mg/ml glycogen synthase peptide (H-[…]OH) (Bachem, King of Prussia, Pa.), 40 μg/ml L-α-Phosphatidyl-L-serine, 1 μg/ml 1,3-Diolen, 10 mM MgCl2, pH 7.5). To assess PKA activity, kinase reactions were conducted in 50 μl comprising 0.5 μg PKA (from bovine heart supplied by Sigma, St. Louis, Mo.) diluted in 10 mM MOPS, pH 6.5 and reaction buffer comprising substrate (50 mM MOPS, pH 6.5, 10 mM MgCl2, 0.1 mg/ml Histone-IIA (Sigma, St. Louis, Mo.), 1 μM cAMP). An ATP solution (0.01 μM ATP and 0.5 μCi of [γ^33-P] ATP) was then added to the wells in both assay systems. Inhibitors were added at the indicated concentrations with a final DMSO concentration of 10%. Reactions were allowed to proceed for 20 minutes at 37° C. and were stopped with 25 mM EDTA. The reactions were spotted onto filter paper, washed four times in a beaker comprising 75 mM phosphoric acid and rinsed with acetone. Filters were dried and put in scintillation vials with fluid and counted.

Jurkat T cells = experiment: Apoptosis assay (TUNEL, flow cytometry); type: cell-based; conditions: 3 μM, 24 hours
Description: To determine the mechanism behind the ability of SCY to inhibit cell proliferation, about 2×10^5 Jurkat T cells/ml were treated with vehicle (negative control), 3 μM SCY, or 3 μM camptothecin (positive control) a (0.1% DMSO[final]) and incubated at 37° C., 5% CO2 for 24 hours. As a positive control, camptothecin, a DNA topoisomerase inhibitor, was used because of its ability to arrest Jurkat cells at the G2/M phase of the cell cycle and induce the cells to undergo apoptosis. The cells were fixed in 1% paraformaldehyde, washed once with PBS, and stored in 70% EtOH at−20° C. Apoptosis was measured using the Promega Apoptosis Detection System (Promega, Madison, Wis.) an adapted TUNEL staining method.
The cells were washed two times with 5 ml PBS 2% FBS, then transferred to a microcentrifuge tube in 1 ml PBS, 0.2% Triton×100, 5 mg/ml BSA and incubated on ice for 5 minutes. Samples were spun, PBS solution removed, then resuspended in 80 μl equilibration buffer from Promega kit and incubated at room temperature for 10 minutes. Then the samples were spun and the equilibration buffer removed. A nucleotide mix comprising 45 μl equilibration buffer, 5 μl nucleotide mix, 1 μl Tdt enzyme per sample, was used to resuspend each sample in the dark. The cells were incubated in the dark at 37° C. for 1 hour. The reaction was terminated by the addition of 20 mM EDTA. The samples were washed twice with 1 ml RNAse A and a small aliquot, about 50 μl, was viewed under a microscope. Cells were stained with fluoroscein and then counterstained with propidium iodide and analyzed for DNA content and fragmentation using a Becton-Dickinson FacsSort (Becton-Dickinson, San Jose, Calif.).

T2 sequence (P05771 1-673 isoform P05771-2): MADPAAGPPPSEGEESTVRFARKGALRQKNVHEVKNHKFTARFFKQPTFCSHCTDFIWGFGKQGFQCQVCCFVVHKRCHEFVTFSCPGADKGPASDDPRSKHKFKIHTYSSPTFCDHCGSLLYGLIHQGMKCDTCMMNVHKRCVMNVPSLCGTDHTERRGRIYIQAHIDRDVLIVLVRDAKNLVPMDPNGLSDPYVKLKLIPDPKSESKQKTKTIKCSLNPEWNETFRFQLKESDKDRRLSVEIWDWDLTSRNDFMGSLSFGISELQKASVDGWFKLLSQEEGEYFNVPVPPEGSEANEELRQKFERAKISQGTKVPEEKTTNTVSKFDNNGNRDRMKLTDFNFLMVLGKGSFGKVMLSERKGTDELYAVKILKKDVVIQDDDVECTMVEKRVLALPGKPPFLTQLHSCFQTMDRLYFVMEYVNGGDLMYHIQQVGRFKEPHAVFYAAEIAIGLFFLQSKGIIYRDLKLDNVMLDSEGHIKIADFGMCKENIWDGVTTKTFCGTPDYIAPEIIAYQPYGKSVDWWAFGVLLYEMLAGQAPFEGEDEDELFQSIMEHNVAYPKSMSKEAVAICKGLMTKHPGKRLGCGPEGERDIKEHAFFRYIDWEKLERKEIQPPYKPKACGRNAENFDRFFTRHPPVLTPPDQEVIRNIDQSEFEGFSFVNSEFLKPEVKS
T1 sequence (P06493 whole entry): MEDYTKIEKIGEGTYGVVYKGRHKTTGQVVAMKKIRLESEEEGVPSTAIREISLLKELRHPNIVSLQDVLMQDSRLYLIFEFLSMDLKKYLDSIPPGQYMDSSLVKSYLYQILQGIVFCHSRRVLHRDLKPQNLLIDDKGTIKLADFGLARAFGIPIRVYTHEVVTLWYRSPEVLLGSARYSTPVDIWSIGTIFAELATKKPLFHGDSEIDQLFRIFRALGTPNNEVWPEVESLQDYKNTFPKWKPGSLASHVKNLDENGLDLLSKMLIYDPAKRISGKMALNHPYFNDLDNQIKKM
T1 sequence (P14635 whole entry partner): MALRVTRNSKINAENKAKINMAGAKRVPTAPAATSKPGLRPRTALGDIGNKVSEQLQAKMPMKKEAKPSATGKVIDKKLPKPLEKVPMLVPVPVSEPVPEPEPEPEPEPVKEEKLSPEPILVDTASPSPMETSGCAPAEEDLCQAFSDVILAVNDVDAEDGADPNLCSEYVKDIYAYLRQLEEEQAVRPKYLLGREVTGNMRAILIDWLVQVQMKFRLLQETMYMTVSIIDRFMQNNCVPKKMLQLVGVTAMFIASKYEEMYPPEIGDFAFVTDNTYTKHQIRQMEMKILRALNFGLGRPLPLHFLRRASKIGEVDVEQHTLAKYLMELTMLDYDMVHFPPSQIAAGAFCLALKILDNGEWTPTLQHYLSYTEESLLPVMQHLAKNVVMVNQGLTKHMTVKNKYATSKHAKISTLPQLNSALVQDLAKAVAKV

scytonemin
IC50 (CDK1/cyclinB1): ~3000 nM | IC50 (rhPKCβ2): ~3000 nM | effect on cell cycle progression (Jurkat T cells): did not have any cell cycle specific effect | induction of apoptosis (DNA fragmentation) (Jurkat T cells): cause the cells to undergo apoptosis in all phases of the cell cycle
